Data published in patent US5132424A, “Pyrazolo-pyrrolo-pyrimidine-diones” (The Upjohn Company, priority 1991, dated 1992).

Columns and labels:
ACAT enzyme [1] = assay: ACAT Inhibition Assay (inhibition of cholesterol esterification in cultured Fu5AH rat hepatoma cells); format: cell-based; set-up: key to Activity: Active: Compounds with ACAT inhibiting activity equal to, or greater than, that of chloropromazine are declared active; conditions: for % Inhib. of Chol. Esterf.: Fu5AH cells, 18 hours; for Activity: compared with chlorpromazine
From the text: A standard in vitro test system designed to identify compounds capable of inhibitory the ACAT enzyme in cultured Fu5AH rat hepatoma cells which was used to test the compounds of this invention, among others, is described hereinbelow.
Since the ACAT enzyme in Fu5AH cells is similar if not identical to the ACAT enzyme in arterial tissue in valuable, warm-blooded animals, including humans, the Fu5AH cell test represents a more efficient, simplified and economical means of screening for ACAT inhibitors than similar assays which depend upon the use of arterial tissue and arterial subfractions as the source of the ACAT enzyme.
For our in vitro test the Fu5AH rat hepatoma cell line was selected as our source of the ACAT enzyme since this particular cell line mimicked important characteristics of human and valuable animal arterial cells during the development of atherosclerosis. The Fu5AH cells accumulate cholesterol extensively when incubated with hyperlipemic plasma proteins; more importantly, Fu5HA cells accumulated the cholesterol predominantly as the esterified form through the action of the ACAT enzyme. See Rothblat, G. H., "Cholesteryl Ester Metabolism in Tissue Culture Cell. I. Accumulation in Fu5AH Rat Hepatoma Cells", Lipids, 9, (1974) page 526.
The Fu5AH cells used in our in vitro assay were first acquired from G. H. Rothblat, supra, of the Medical College of Pa.
The Fu5AH rat hepatoma cell-line was derived from the Reuber H-35 rat hepatoma. (See Reuber, M.D., "A Transplantable Bilesecreting Hepatocellular Carcinoa in the Rat", J. Natl., Cancer Inst., 26 (1961), page 891. The cell-line is maintained in Eagle's Minimal Essential Medium (MEM, GiBCO) supplemented with 5% bovine fetal calf serum. Incubation is at 36° C. in an atmosphere of 5% CO2 in air (Hotpack, Model 351922). Cells from stock cultures, grown to confluency in 25 cm^2 flasks (Falcon) containing 10 ml. medium, are detached with 0.25% trypsin in 1% ethylenediaminetetraacetic acid (EDTA) (Gibco), diluted 1:10 with MEM and mixed by agitation through a pipette which serves to disrupt the cellular clumps. Stock cultures are replenished with fresh medium at 3 to 4 day intervals.
One ml. aliquots of the diluted stock suspension described above are then transferred to 60 mm. dishes (Falcon) containing four ml. MEM and the seeded cells are allowed to grow to confluence (three days). At confluence, the medium is removed by aspiration and the cells are washed once with MEM. Five ml. of MEM supplemented with 5% hyperlipemic rabbit serum (HRS) (HRS is obtained from male New Zealane rabbits fed Purina Chow® rabbit feed supplemented with 1% cholesterol and 3% peanut oil (w/w/w/) for two to three weeks. Pooled sera from two or more rabbits are filtered through a 0.45 mμ filter (Nalgene) and stored frozen in convenient aliquots until used) and containing 1μ Ci/ml of ^3 H-cholesterol are then added to the dishes as the experimental (assay) medium. The experimental medium is labeled with 1,2-^3 H(N)-cholesterol (sp. act. approx. 40-60 Ci/mol, New Zealand Nuclear Corp.) prior to its addition to the confluent cultures and is prepared as follows. Five ml. of HRS is diluted with approximately 20 ml of MEM and the mixture is labeled by the addition of 100 μCi ^3 H-cholesterol dissolved in 100 μl absolute ethyl alcohol. The resulting mixture is then incubated for four hours at 36° C. to permit equilibration of the labeled cholesterol with the serum lipoprotein-cholesterol. After the equilibration period, the mixture is diluted to 100 ml. with MEM and used as the labeled assay medium. Following the addition of the labeled medium to the dishes, dimethylsulfoxide solutions of the test substances and the positive standard chloropromazine HCl (1 mg/ml) are added to the cultures in volumes of 25, 50, […]; control cultures receive equivalent volumes of dimethylsufoxide alone. […]

[2] = test system: Moderately Hypercholesterolemic Quail; assay: In vivo testing in moderately hypercholesterolemic quail (serum LDL cholesterol); set-up: species or system Japanese quail; conditions: compound in diet, two weeks
From the text: Male SEA Japanese quail, approximately four to six weeks of age, were reared at Miles Quail Farm, Gobles, Mich. from a colony of animals originally derived at The Upjohn Company. Birds were randomly distributed into ten groups of ten quail each. They were house individually in ten cage units and fed a commercial diet (Purina Game Bird Layena, Ralston Purina Co., St. Louis, Mo.) mixed with various amounts of cholesterol with and without 1% peanut oil. Compounds were mixed into 2.4 kg of the diet using a feed mixer (Hobard A-200) for twenty minutes. Control groups received normal diet. In one series of experiments birds were fed 0.5% cholesterol/1% peanut oil plus colestipol hydrochloride. After two weeks on the diets, each bird was bled from the right jugular vein and serum samples were obtained after low speed centrifugation. Food intake was determined for each group by subtracting the weight of diet remaining at the end of the experiment from the weight of the starting diet.
Beta- and alpha-lipoproteins were isolated from individual serum samples using PEG-8000 and glycerine buffer, pH 9 (9). Three hundred microliters of serum were mixed with 300 microliters of solution. A (20 grams of PEG-8000 plus 100 ml of glycerine buffer, pH 9) using a Micromedic automatic pipet. Samples were allowed to stand at room temperature for ten minutes and then were centrifuged for twenty minutes at 2000× g at 4° C. The beta-lipoprotein pellet was dissolved in 300 microliters of solution B (10 ml Triton X-100 plus 1000 ml Milli Q water). Cholesterol, triglycerides and total protein in alpha- and beta-lipoproteins were measured using the Deman Autoanalyzer, Model AU 500 (Cooper Biomedical Inc.) and Worthington Demand Enzymatic reagents.
All data were statistically analyzed using a one-way classification design. Values were transformed to logarithms to achieve more homogenous within-group variances. The mean response for each diet and for the effect was compared with the mean observed in the control animals by the LSD test. Treated/control ratios of antilogs of the log means are also presented.

membranes = conditions: known drug; cited from earlier work
ACAT enzyme [3] = conditions: known drug; cited from earlier work
[4] = test system: blood platelet aggregation; conditions: known drug; cited from earlier work

Row | SMILES | % Inhib. of Chol. Esterf. (ACAT enzyme [1]; 5.0 ug/ml) | Activity (ACAT enzyme [1]; 5.0 ug/ml) | % Inhib. of Chol. Esterf. (ACAT enzyme [1]; 10.0 ug/ml) | Activity (ACAT enzyme [1]; 10.0 ug/ml) | % Inhib. of Chol. Esterf. (ACAT enzyme [1]; 15.0 ug/ml) | Activity (ACAT enzyme [1]; 15.0 ug/ml) | Percent Change in Serum LDL Cholesterol From Control [2] | potency for ACAT enzyme inhibition (in words) (ACAT enzyme [1]; among the compounds of Table I) | change of membrane fluidity (in words) (membranes) | ACAT enzyme inhibition (in words) (ACAT enzyme [3]) | blood platelet aggregation inhibition (in words) [4]
1 | C=CCCCCn1c2c(c(=O)n3nc(-c4ccccc4)cc13)CN(C1CCCCC1)C2=O [Example 1, 6-Cyclohexyl-4-(5-hexenyl)-6,7-dihydro-2-phenyl-4H-pyrazolo[1,5-a]pyrrolo[3,4-d]pyrimidine-5,8-dione] | 68.6% | Active | 93.2% | Active | 96.1% | Active | -42% |  |  |  | 
2 | O=C1c2c(c(=O)n3nc(-c4ccccc4)cc3n2Cc2ccccc2)CN1C1CCCCC1 [Example 2, 6-Cyclohexyl-6,7-dihydro-2-phenyl-4-(phenylmethyl)-4H-pyrazolo[1,5-a]pyrrolo[3,4-d]pyrimidine-5,8-dione] | 60.1% | Active | 87.7% | Active | 93.6% | Active | -50% |  |  |  | 
3 | O=C(Cn1c2c(c(=O)n3nc(-c4ccccc4)cc13)CN(C1CCCCC1)C2=O)c1ccccc1 [Example 4, 4-(Benzoylmethyl)-6-cyclohexyl-6,7-dihydro-2-phenyl-4H-pyrazolo[1,5-a]pyrrolo-[3,4-d]pyrimidine-5,8-dione] | 88.6% | Active | 92.2% | Active | 91.9% | Active | -59% | most potent compound |  |  | 
4 | CN(C)CCCN1c2ccccc2Sc2ccc(Cl)cc21 [chlorpromazine] |  |  |  |  |  |  |  |  | change the fluidity of membranes | ACAT enzyme inhibitor | blood platelet aggregation inhibition properties
